The source of these data is US20250144067A1, “PERSONALIZED STARVATION THERAPY FOR CANCER” (Faeth Therapeutics, Inc., priority 2021, published 2025).

Like-named read-outs stand apart in the source and are kept apart here.

Experiment [1] concerns NCI-H292 lung cancer cells. As to the kind of experiment: FDA drug screening, complete media vs cholesterol-free media without statin (TABLE 1). Format: cell-based, human.
Experiment [2] concerns NCI-H292 lung cancer cells. Put plainly: FDA drug screening, complete media vs cholesterol-free media with simvastatin (TABLE 2). The format is cell-based, human.
The mark [3] stands for this setting: NCI-H292 cells, cholesterol-free media without statin.
Setting [4] is: NCI-H292 cells, FDA drug library screen, cholesterol-free media with simvastatin 0.04 μM.
Where [5] appears, read: complete media minus cholesterol-free media + simvastatin, >0 enhanced anti-cancer activity, about 0 neutral, <0 antagonist.
[6] abbreviates: Complete minus Cholesterol-free, >0 enhanced anti-cancer activity, about 0 neutral, <0 antagonist.
Where [7] appears, read: NCI-H292 cells, drug in cholesterol-free media with simvastatin 0.04 μM.
Setting [8] is: NCI-H292 cells, drug in complete media.
Where [9] appears, read: complete media vs cholesterol-free media + simvastatin (0.04 μM), >0 enhanced anti-cancer activity, about 0 neutral, <0 antagonist.
Setting [10] is: NCI-H292 cells, FDA drug library screen, cholesterol-free media without statin.
Where [11] appears, read: NCI-H292 cells, FDA drug library screen, complete media.
[12] abbreviates: NCI-H292 cells, cholesterol-free media with simvastatin 0.04 μM, FDA drug library screen (TABLE 2).
Where [13] appears, read: NCI-H292 cells, complete media, FDA drug library screen (TABLE 2).
The mark [14] stands for this setting: complete media minus cholesterol-free media + simvastatin (0.04 μM), >0 enhanced anti-cancer activity, about 0 neutral, <0 antagonist.

For the compound `C[C@H]1Oc2cc(cnc2N)-c2c(nn(C)c2C#N)CN(C)C(=O)c2ccc(F)cc21` [Lorlatinib], the Cholesterol-free in experiment [1] (setting [3]) was 1.143. In experiment [1] (NCI-H292 cells, complete media), this compound gave a Complete of 0.8052. Moreover, the Difference in experiment [1] (complete vs cholesterol-free media, greater than 0 enhanced anti-cancer activity, about 0 neutral, below 0 antagonists) is reported as −0.34; in experiment [2] (setting [5]) it was 0.20. For the same compound, the “Cholesterol-free media + simvastatin (0.04 μM)” value in experiment [2] (setting [4]) was determined as 0.9476.

As for `CCCCNC(=O)NS(=O)(=O)c1ccc(C)cc1` [Tolbutamide], the results for the Difference in experiment [1] (setting [6]) and in experiment [2] (setting [9]) were −0.25 and −0.20, respectively. The compound further showed a Cholesterol-free in experiment [1] (setting [3]) of 1.099. For the same compound, in experiment [1] (NCI-H292 cells, complete media), the Complete was determined as 0.8474. In experiment [2] (setting [7]), the “Cholesterol-free media + simvastatin (0.04 μM)” value was 1.123. In addition, the “Complete Media” value in experiment [2] (setting [8]) is 0.9256.

In experiment [1], `O=C(OCC(O)CO)c1ccccc1Nc1ccnc2cc(Cl)ccc12` (centres unmarked) [Glafenine] had a Cholesterol-free of 1.288 and a Difference of −0.12. In experiment [2], the “Cholesterol-free media + simvastatin (0.04 μM)” value stood at 0.9477, the “Complete Media” value came to 1.068 and the Difference is given as 0.12.

Regarding `CC=CC(=O)N(CC)c1ccccc1C` [Crotamiton], the Difference is recorded as −0.17 in experiment [1] (Complete minus Cholesterol-free, […]) and −0.17 in experiment [2] (complete media vs cholesterol-free media + simvastatin (0.04 μM), […]). The compound also showed a Cholesterol-free in experiment [1] (setting [10]) of 1.084. This compound also displayed a Complete in experiment [1] (setting [11]) of 0.9155. Further, the “Cholesterol-free media + simvastatin (0.04 μM)” value in experiment [2] (setting [7]) stood at 1.259. The “Complete Media” value in experiment [2] (setting [8]) amounted to 1.088.

For the compound `CC(=O)O[C@H]1C[C@@H]2CC[C@@H]3[C@H](CC[C@@]4(C)[C@H]3C[C@H]([N+]3(C)CCCCC3)[C@@H]4OC(C)=O)[C@@]2(C)C[C@@H]1N1CCCCC1.[Br-]` [Vecuronium (bromide)], in experiment [1], the Cholesterol-free is on record as 1.045, the Complete amounted to 0.9438 and the Difference is −0.10. For the same compound, in experiment [2], the “Cholesterol-free media + simvastatin (0.04 μM)” value stood at 0.9802, the “Complete Media” value was found to be 0.9534 and the Difference was −0.03.

Regarding `N=C(N)NCCCC(N)C(=O)O` (racemic) [DL-Arginine], in experiment [1], the Cholesterol-free came to 1.525, the Complete amounted to 1.476 and the Difference is on record as −0.05. In experiment [2], the “Cholesterol-free media + simvastatin (0.04 μM)” value came to 0.9889, the “Complete Media” value was 0.9776 and the Difference is −0.01.

For `CCCCCCOC(=O)N=C(N)c1ccc(NCc2nc3cc(C(=O)N(CCC(=O)OCC)c4ccccn4)ccc3n2C)cc1` [Dabigatran etexilate], the Difference in experiment [1] (Complete minus Cholesterol-free, greater than 0 enhanced anti-cancer activity, about 0 neutral, below 0 antagonist) was −0.09; in experiment [2] (setting [5]) it was 0.03. This compound displayed a Cholesterol-free in experiment [1] (setting [10]) of 0.9682. Besides, in experiment [1] (setting [11]), the Complete amounted to 0.8738. Besides, the “Cholesterol-free media + simvastatin (0.04 μM)” value in experiment [2] (NCI-H292 cells, cholesterol-free media with simvastatin 0.04 μM, cell growth value in FDA drug screen) was 0.8555. Besides, the “Complete Media” value in experiment [2] (NCI-H292 cells, complete media, cell growth value in FDA drug screen) is recorded as 0.8818.

For the compound `CCc1cc(C(N)=S)ccn1` [Ethionamide], the Difference in experiment [1] (Complete minus Cholesterol-free, greater than 0 enhanced anti-cancer activity, about 0 neutral, below 0 antagonists) is listed as −0.66; in experiment [2] (setting [14]), 0.00. In experiment [1] (NCI-H292 cells in cholesterol-free media without statin), this compound displayed a Cholesterol-free of 1.516. Moreover, the Complete in experiment [1] (NCI-H292 cells in complete media) came out at 0.857. Moreover, the “Cholesterol-free media + simvastatin (0.04 μM)” value in experiment [2] (setting [12]) worked out at 1.611. Moreover, in experiment [2] (setting [13]), the “Complete Media” value amounted to 1.611.

In the case of Dexchlorpheniramine (maleate), the Difference was −0.05 in experiment [1] (setting [6]) and 0.01 in experiment [2] (setting [14]). Also, in experiment [2] (setting [12]), the “Cholesterol-free media + simvastatin (0.04 μM)” value is given as 0.9393. Further, the “Complete Media” value in experiment [2] (setting [13]) stood at 0.9459.

Turning to `C[C@]12CC[C@@H]3c4ccc(O)cc4C[C@@H](CCCCCCCCC[S+]([O-])CCCC(F)(F)C(F)(F)F)[C@H]3[C@@H]1CC[C@@H]2O` (some centres unmarked) [Fulvestrant], the Difference in experiment [1] (setting [6]) is recorded as −0.29; in experiment [2] (setting [9]), −0.09. This compound also yielded a Cholesterol-free in experiment [1] (setting [3]) of 1.364. In experiment [1] (NCI-H292 cells, complete media), the Complete came out at 1.074. Moreover, the “Cholesterol-free media + simvastatin (0.04 μM)” value in experiment [2] (setting [4]) was 1.051. In experiment [2] (setting [11]), the “Complete Media” value is reported as 0.9579.
